# Data: PMC2074382 (British Journal of Cancer, 1996)
# Structures can show the parent of a compound that is named as a salt.
# How the values were obtained:
# [1] = system: patients with a solid tumour; assay: Phase I study, toxicity (CTC criteria) of GI147211 30 min i.v. infusion daily x 5 every 3 weeks; assay type: in vivo, human
# Description: British Journal of Cancer (1996) 73, 744-750 O (C? 1996 Stockton Press All rights reserved 0007-0920/96 $12.00 Phase I and pharmacological study of the new topoisomerase I inhibitor G1147211, using a daily x 5 intravenous administration CJH Gerrits', GJ Creemers', JHM Schellens', P Wissel2, AS Th Planting', R Kunka2, K Selinger2, M de Boer-Dennert', Y Marijnen3, M Harteveld' and J Verweijl 'Department of Medical Oncology, Rotterdam Cancer Institute, Rotterdam, The Netherlands; 2Glaxo Wellcome Inc, Department of Clinical Pharmacology, NC, USA; 3Glaxo Wellcome Inc, Department of Clinical Research, Zeist, The Netherlands. Summary Topoisomerase I inhibitors are interesting anti-cancer agents with a novel mechanism of action. […] In subsequent patient cohorts the dose was escalated from 0.3 to 1.5 mg m-2 day-'. Pharmacokinetics analysis was performed on days 1 and 4 of the first course using a validated high- performance liquid chromatographic assay and non-compartmental methods. […] Its further development was stopped because of unpredictable and severe myelosuppression, gastrointestinal toxicity and haemorrhagic cystitis. In the late 1980s two discoveries brought about a renewal of interest in CPT; firstly, topoisomerase I was identified as the single cellular target of CPT (Hsiang et al., 1985; Hsiang and Liu, 1988) and, secondly, an overexpression of topoisomerase I was found in various tumour cell lines but not in normal tissues (Giovanella et al., 1989; Hirabayaski et al., 1992; Potmesil et al., 1988). Topoisomerase I is a nuclear enzyme that resolves topological problems of the torsionally strained (supercoiled) DNA (Slichenmyer et al., 1993). This is achieved by forming a covalent adduct between topoisome- rase I and the DNA, termed the cleavable complex. This catalytic intermediate creates single-strand DNA breaks, allowing the DNA molecule to rotate around the intact DNA strand at the cleavage site, leading to a relaxation of the DNA molecule and in this way replication, transcription and other DNA functions can proceed. These enzyme- bridged breaks are then resealed by topoisomerase I. CPT stabilises the cleavable complexes, thereby preventing resealing of single-strand DNA breaks in the presence of the drug (Covey et al., 1989; D'Arpa and Liu, 1989; Eng et al., 1988). Cytotoxicity is specific to the S-phase of the cell cycle because the double-strand breaks that occur during this phase are more difficult to repair in the presence of the drug (Horwitz and Horwitz, 1973). […] Other eligibility criteria included: (1) age>, 18 years; (2) an Eastern Cooperative Oncology Group (ECOG) performance status <2; (3) a predicted life expectancy of at least 3 months; (4) no previous anti-cancer therapy for at least 3 weeks (6 weeks for previous nitro- soureas or mitomycin C); (5) adequate haemato- poietic (WBC) 3 x 109 -', ANC > 1.5 x 109 1-' and platelets 100 x 10 1- 1), hepatic (bilirubin within normal limits, AST, ALT and/or alkaline phosphatase < 2.0 x normal), and renal (serum creatinine < 130 imol 1-') functions. All patients gave written informed consent.
# [2] = system: mice; conditions: by rough estimate; cited from earlier work
# [3] = 0.3 mg m-2 day-1, 3 patients, 10 evaluable courses
# [4] = 0.6 mg m-2 day-1, 3 patients, 18 evaluable courses
# [5] = 0.9 mg m-2 day-1, 3 patients, 9 evaluable courses
# [6] = 1.2 mg m-2 day-1, 6 patients, 15 evaluable courses
# [7] = 1.2 mg m-2 day-1, n=6, Table III
# [8] = 1.2 mg m-2 day-1, n=7, Table III
# [9] = 1.5 mg m-2 day-1, 6 patients, 15 evaluable courses
# [10] = 1.5 mg m-2 day-1, n=7, Table III
# [11] = 1.5 mg m-2 day-1, n=13, Table III
smiles,measurement,setting,value
"CC[C@@]1(O)C(=O)OCc2c1cc1n(c2=O)Cc2c-1nc1cc3c(cc1c2CN1CCN(C)CC1)OCCO3 [GI147211, [7 - (methylpiperazinomethylene) - 10,11 - ethylene-dioxy-20(S)] camptothecin dihydrochloride]","Leucocytes CTC grade 1, number of courses",[1]; [3],0
same,"Leucocytes CTC grade 2, number of courses",[1]; [3],0
same,"Leucocytes CTC grade 3, number of courses",[1]; [3],0
same,"Leucocytes CTC grade 4, number of courses",[1]; [3],0
same,"Neutrophils CTC grade 1, number of courses",[1]; [3],0
same,"Neutrophils CTC grade 2, number of courses",[1]; [3],0
same,"Neutrophils CTC grade 3, number of courses",[1]; [3],0
same,"Neutrophils CTC grade 4, number of courses",[1]; [3],0
same,"Platelets CTC grade 1, number of courses",[1]; [3],0
same,"Platelets CTC grade 2, number of courses",[1]; [3],0
same,"Platelets CTC grade 3, number of courses",[1]; [3],0
same,"Platelets CTC grade 4, number of courses",[1]; [3],0
same,"Leucocytes CTC grade 1, number of courses",[1]; [4],8
same,"Leucocytes CTC grade 2, number of courses",[1]; [4],0
same,"Leucocytes CTC grade 3, number of courses",[1]; [4],0
same,"Leucocytes CTC grade 4, number of courses",[1]; [4],0
same,"Neutrophils CTC grade 1, number of courses",[1]; [4],4
same,"Neutrophils CTC grade 2, number of courses",[1]; [4],1
same,"Neutrophils CTC grade 3, number of courses",[1]; [4],0
same,"Neutrophils CTC grade 4, number of courses",[1]; [4],0
same,"Platelets CTC grade 1, number of courses",[1]; [4],1
same,"Platelets CTC grade 2, number of courses",[1]; [4],0
same,"Platelets CTC grade 3, number of courses",[1]; [4],0
same,"Platelets CTC grade 4, number of courses",[1]; [4],0
same,"Leucocytes CTC grade 1, number of courses",[1]; [5],3
same,"Leucocytes CTC grade 2, number of courses",[1]; [5],1
same,"Leucocytes CTC grade 3, number of courses",[1]; [5],1
same,"Leucocytes CTC grade 4, number of courses",[1]; [5],0
same,"Neutrophils CTC grade 1, number of courses",[1]; [5],0
same,"Neutrophils CTC grade 2, number of courses",[1]; [5],4
same,"Neutrophils CTC grade 3, number of courses",[1]; [5],1
same,"Neutrophils CTC grade 4, number of courses",[1]; [5],0
same,"Platelets CTC grade 1, number of courses",[1]; [5],4
same,"Platelets CTC grade 2, number of courses",[1]; [5],2
same,"Platelets CTC grade 3, number of courses",[1]; [5],1
same,"Platelets CTC grade 4, number of courses",[1]; [5],0
same,"ANC nadir, range",[1]; 1.2 mg m-2 day-1,0.08-5.6 x 109 l-1
same,"grade 3-4 neutropenia, courses",[1]; 1.2 mg m-2 day-1,7/15
same,"grade 3-4 thrombocytopenia, courses",[1]; 1.2 mg m-2 day-1,6/15
same,median ANC nadir,[1]; 1.2 mg m-2 day-1,1.29e+09 L⁻¹
same,median platelet nadir,[1]; 1.2 mg m-2 day-1,7.4e+10 L⁻¹
same,"platelet nadir, range",[1]; 1.2 mg m-2 day-1,33-379 x 109 l-1
same,subsequent courses postponed owing to prolonged myelosuppression,[1]; 1.2 mg m-2 day-1,6/15
same,"Leucocytes CTC grade 1, number of courses",[1]; [6],1
same,"Leucocytes CTC grade 2, number of courses",[1]; [6],1
same,"Leucocytes CTC grade 3, number of courses",[1]; [6],4
same,"Leucocytes CTC grade 4, number of courses",[1]; [6],2
same,"Neutrophils CTC grade 1, number of courses",[1]; [6],2
same,"Neutrophils CTC grade 2, number of courses",[1]; [6],2
same,"Neutrophils CTC grade 3, number of courses",[1]; [6],1
same,"Neutrophils CTC grade 4, number of courses",[1]; [6],6
same,"Platelets CTC grade 1, number of courses",[1]; [6],0
same,"Platelets CTC grade 2, number of courses",[1]; [6],1
same,"Platelets CTC grade 3, number of courses",[1]; [6],6
same,"Platelets CTC grade 4, number of courses",[1]; [6],0
same,"Day nadir, thrombocytopenia (range)",[1]; [7],15 (10-19) day
same,Median day of occurrence of grade 3-4 thrombocytopenia (range),[1]; [7],15 (15-15) day
same,Median number of days from grade 3-4 to recovery > grade 2 thrombocytopenia (range),[1]; [7],7 (2-8) days
same,"Day nadir, neutropenia (range)",[1]; [8],22 (13-22) day
same,Median day of occurrence of grade 3-4 neutropenia (range),[1]; [8],15 (10-19) day
same,Median number of days from grade 3-4 to recovery > grade 2 neutropenia (range),[1]; [8],10 (1_10) days
same,"ANC nadir, range",[1]; 1.5 mg m-2 day-1,0.01-1.7 x 109 l-1
same,"grade 3-4 neutropenia, courses",[1]; 1.5 mg m-2 day-1,13/15
same,"grade 3-4 neutropenia, per cent of courses",[1]; 1.5 mg m-2 day-1,86%
same,median ANC nadir,[1]; 1.5 mg m-2 day-1,9e+07 L⁻¹
same,median platelet nadir,[1]; 1.5 mg m-2 day-1,6.2e+10 L⁻¹
same,"platelet nadir, range",[1]; 1.5 mg m-2 day-1,10-116 x 109 l-1
same,thrombocytopenia complicated by gastrointestinal bleeding,[1]; 1.5 mg m-2 day-1,two
same,"thrombocytopenia grade 3-4, courses",[1]; 1.5 mg m-2 day-1,7/15
same,"thrombocytopenia grade 3-4, per cent of courses",[1]; 1.5 mg m-2 day-1,46%
same,"treatment delay, courses",[1]; 1.5 mg m-2 day-1,5 of the 15 courses
same,"Leucocytes CTC grade 1, number of courses",[1]; [9],0
same,"Leucocytes CTC grade 2, number of courses",[1]; [9],9
same,"Leucocytes CTC grade 3, number of courses",[1]; [9],3
same,"Leucocytes CTC grade 4, number of courses",[1]; [9],3
same,"Neutrophils CTC grade 1, number of courses",[1]; [9],2
same,"Neutrophils CTC grade 2, number of courses",[1]; [9],0
same,"Neutrophils CTC grade 3, number of courses",[1]; [9],2
same,"Neutrophils CTC grade 4, number of courses",[1]; [9],11
same,"Platelets CTC grade 1, number of courses",[1]; [9],2
same,"Platelets CTC grade 2, number of courses",[1]; [9],6
same,"Platelets CTC grade 3, number of courses",[1]; [9],4
same,"Platelets CTC grade 4, number of courses",[1]; [9],3
same,"Day nadir, thrombocytopenia (range)",[1]; [10],15 (13 15) day
same,Median day of occurrence of grade 3-4 thrombocytopenia (range),[1]; [10],15 (10-15) day
same,Median number of days from grade 3-4 to recovery > grade 2 thrombocytopenia (range),[1]; [10],8 (5-12) days
same,"Day nadir, neutropenia (range)",[1]; [11],15 (13 -22) day
same,Median day of occurrence of grade 3-4 neutropenia (range),[1]; [11],10 (5-25) day
same,Median number of days from grade 3-4 to recovery > grade 2 neutropenia (range),[1]; [11],11 (4-25) days
same,infectious complications,"[1]; 1.5 mg m-2 day-1, two life-threatening septic",Three
same,maximal tolerated dose,"[1]; 30 min i.v. infusion daily x 5, every 3 weeks",1.2 mg m-2 day-1
same,severity of nausea and vomiting,[1]; CTC grade,never worse than grade 1-2
same,cumulative myelotoxicity,[1]; all dose levels,not observed
same,"mild headache, courses",[1]; all dose levels,eight
same,"mild headache, per cent of courses",[1]; all dose levels,12%
same,"nausea, per cent of given courses",[1]; all dose levels,44%
same,other non-haematological toxicities,[1]; all dose levels,"no diarrhoea, mucositis, liver or renal toxicity"
same,"vomiting, per cent of given courses",[1]; all dose levels,22%
same,"nausea, number of given courses","[1]; all dose levels, 67 courses",30 courses
same,"vomiting, number of given courses","[1]; all dose levels, 67 courses",15 courses
same,dose-limiting toxicities,[1]; at 1.5 mg m-2 day-1,neutropenia and thrombocytopenia
same,myelotoxicity,"[1]; first two dose levels (0.3, 0.6 mg m-2 day-1)",No myelotoxicity
same,alopecia grade 1,[1]; highest two dose levels,three
same,anaemia,[1]; in vivo,occurred frequently but was never severe
same,recommended dose for phase II studies,[1]; x 5 every 3 weeks,1.2 mg m-2
same,murine LD10 compared with topotecan,[2],equivalent to topotecan
